Test results from patent US7745375B2, “Synergistic insecticide mixtures” (Bayer CropScience AG, priority 2003, dated 2010).

Experiments:
Assay type in all cases: in vivo
Heliothis armigera [1] = experiment: Example C Heliothis armigera test (soya bean shoots dipped); details: single active compound, 4 ppm
Protocol: (§1) To prepare a suitable active compound preparation, 1 part by weight of active compound is mixed with the stated amounts of solvent and emulsifier, and the concentrate is diluted with emulsifier-comprising water to the desired concentration.
Soya bean shoots (Glycine max) are treated by being dipped into the active compound preparation of the desired concentration and populated with Heliothis armigera caterpillars while the leaves are still damp.
(§2) After the desired period of time, the destruction is determined in %. In this context, 100% means that all of the caterpillars were destroyed; 0% means that no caterpillars were destroyed.

Bemisia tabaci [2] = experiment: Example K Bemisia tabaci test (cotton plants sprayed); details: single active compound, 0.16 ppm
Protocol: as §1
(§3) Cotton plants (Gossypium hirsutum) which are infested with whitefly (Bemisia tabaci) eggs, larvae and puparia are sprayed with the active compound preparation of the desired concentration.
(§4) After the desired period of time, the destruction is determined in %. In this context, 100% means that all of the whiteflies were destroyed; 0% means that no whiteflies were destroyed.

Myzus persicae [3] = experiment: Example M Myzus persicae test (cabbage leaves dipped); details: single active compound, 0.16 ppm
Protocol: as §1
(§5) Cabbage leaves (Brassica oleracea) which are severely infested with green peach aphids (Myzus persicae) are treated by being dipped into the active compound preparation of the desired concentration.
(§6) After the desired period of time, the destruction is determined in %. In this context, 100% means that all of the aphids were destroyed; 0% means that no aphids were destroyed.

Bemisia tabaci [4] = experiment: Example B Bemisia tabaci test (cotton plants sprayed); details: single active compound, 0.8 ppm
Protocol: as §1, §3, §4

Spodoptera exigua [5] = experiment: Example N Spodoptera exigua test (cabbage leaves dipped); details: single active compound, 20 ppm
Protocol: as §1
(§7) Cabbage leaves (Brassica oleracea) are treated by being dipped into the active compound preparation of the desired concentration and populated with army worm caterpillars (Spodoptera exigua) while the leaves are still moist.
as §2

Aphis gossypii = experiment: Example A Aphis gossypii test (cotton leaves dipped); details: single active compound, 0.8 ppm
Protocol: as §1
Cotton leaves (Gossypium hirsutum) which are severely infested with cotton aphids (Aphis gossypii) are treated by being dipped into the active compound preparation of the desired concentration.
as §6

Heliothis armigera [6] = experiment: Example L Heliothis armigera test (soya bean shoots dipped); details: single active compound, 4 ppm
Protocol: as §1
Soya bean shoots (Glycine max) are treated by being dipped into the active compound preparation of the desired concentration and populated with Heliothis armigera caterpillars while the leaves are still moist.
as §2

[7] = tested on: Plutella xylostella (normal strain); experiment: Example E Plutella xylostella test (normal strain); details: single active compound, 20 ppm
Protocol: as §1
Cabbage leaves (Brassica oleracea) are treated by being dipped into the active compound preparation of the desired concentration and populated with diamondback moth caterpillars (Plutella xylostella/sensitive strain) while the leaves are still moist.
as §2

Myzus persicae [8] = experiment: Example D Myzus persicae test (cabbage leaves dipped); details: single active compound, 0.8 ppm
Protocol: as §1, §5, §6

Spodoptera frugiperda = experiment: Example J Spodoptera frugiperda test (cabbage leaves dipped); details: single active compound, 0.8 ppm
Protocol: as §1
Cabbage leaves (Brassica oleracea) are treated by being dipped into the active compound preparation of the desired concentration and populated with army worm caterpillars (Spodoptera frugiperda) while the leaves are still moist.
as §2

[9] = tested on: Plutella xylostella/normal strain; experiment: Example H Plutella test (normal strain); details: single active compound
Protocol: as §1
Cabbage leaves (Brassica oleracea) are treated by being dipped into the active compound preparation of the desired concentration and populated with diamondback moth caterpillars (Plutella xylostella/normal strain) while the leaves are still moist.
as §2

Heliothis armigera [10] = experiment: Example F Heliothis armigera test (soya bean shoots dipped); details: single active compound
Protocol: as §1
Soya bean shoots (glycine max) are treated by being dipped into the active compound preparation of the desired concentration and populated with Heliothis armigera caterpillars while the leaves are still moist.
as §2

Myzus persicae [11] = experiment: Example G Myzus test (cabbage leaves dipped); details: single active compound, 0.16 ppm
Protocol: as §1, §5, §6

Spodoptera exigua [12] = experiment: Example I Spodoptera exigua test (cabbage leaves dipped); details: single active compound, 100 ppm
Protocol: as §1, §7, §2

Structure (SMILES)	Destruction in % after 6 d (Heliothis armigera [1]) [%]	Destruction in % after 10 d (Bemisia tabaci [2]) [%]	Destruction in % after 6 d (Myzus persicae [3]) [%]	Destruction in % after 12 d (Bemisia tabaci [4]) [%]	Destruction in % after 6 d (Spodoptera exigua [5]) [%]	Destruction in % after 6 d (Aphis gossypii) [%]	Destruction in % after 6 d (Heliothis armigera [6]) [%]	Destruction in % after 6 d [7] [%]	Destruction in % after 6 d (Myzus persicae [8]) [%]	Destruction in % after 7 d (Spodoptera frugiperda) [%]	Destruction in % after 7 d ([9]; 20 ppm) [%]	Destruction in % after 7 d (Heliothis armigera [10]; 4 ppm) [%]	Destruction in % after 6 d (Myzus persicae [11]) [%]	Destruction in % after 7 d (Spodoptera exigua [12]) [%]	Destruction in % after 7 d ([9]; 4 ppm) [%]	Destruction in % after 7 d (Heliothis armigera [10]; 0.8 ppm) [%]
CN/C(=N\[N+](=O)[O-])NCc1cnc(Cl)s1 [Clothianidin, clothianidin]	45	5	0	35	10	0	0	60	65							
O=[N+]([O-])/N=C1\NCCN1Cc1ccc(Cl)nc1 [Imidacloprid, imidacloprid]		5	50		10		10			20	15	10	10	45		
N#C/N=C1\SCCN1Cc1ccc(Cl)nc1 [Thiacloprid, thiacloprid]	35			80		25		15	20	10			10	0	0	0
